This note sets out measurements from patent US20050009849A1, “Pyridopyrimidine kinase inhibitors” (priority 2003, published 2005).

Like-named read-outs stand apart in the source and are kept apart here.

The test system of one data set is CML cell lines. The data set can be described thus: cells. The conditions noted are these: read-out: IC50 on CML cell lines.
A further data set concerns R10-Negative cells. The data set can be described thus: CFSE cell division and viability. It is filed as cell-based. The conditions noted are these: 25 nM, after one division by Day 2. On the procedure: Using the vital stain, CFSE, it is possible to determine the concentrations of different inhibitors required to arrest cell division and also to quantitate the number of quiescent cells. […] However with exposure to ST1571 at the same concentration many cells continue dividing and 80% are still viable after 6 days; even at 100 nM ST1571, some cells are able to continue dividing and the viability is still 24% at 6 days.

The next data set concerns normal progenitors. The data set can be described thus: Inhibition of normal progenitors. Format: cell-based, human. From the text: (§1) In many experiments the CD34+ blasts were further depleted of GM, megakaryocyte or lymphocyte progenitors (CD 13, 14, 15, 46, 61, 19-) or of erythroid and megakaryocyte progenitors (CD36-, Glycophorin-, CD41/61-) in order to study the drug's effects on purer erythroid or GM progenitors.

The next data set is described as follows: Solubility. Format: physicochemical.
For data set [1], the system named is human glioblastoma, sarcoma, neuroblastoma and Ewing's sarcoma cell lines. The data set can be described thus: cells. The conditions noted are these: read-out: average IC50s.
The next data set relates to CML progenitors. As to the kind of experiment: cells. Format: cell-based, human. The conditions noted are these: for inhibition at 0.01 µM: read-out: average inhibition of CML GM progenitors, 10 nM.
From the text: as §1

Data set [2] concerns R10 Negative and R10 Positive cells (M07e/p210bcr-abl). The data set can be described thus: cells. The conditions noted are these: M-07e.
For the next data set, the target named is Bcr-Abl E255K (Homo sapiens, UniProt P00519, E255K). On the procedure:
(§2) Ba/F3 cells were cultured for 2,5 hours without and in presence of inhibitor at the indicated concentrations. Cell lysis, SDS-PAGE and immunoblotting were done as described previously.^42 Anti-Abl antibodies were obtained from Pharmingen (8E9) (BD Biosciences, Heidelberg, Germany) and Calbiochem-Novabiochem (Ab3) (Schwalbach, Germany). Antibodies to phosphotyrosine were purchased from Upstate Biotechnology (4G10) (Biozol, Eching, Germany) and Transduction (PY20) (BD Biosciences, Heidelberg, Germany). Bands were visualized using the ECL system (Amersham, Braunschweig, Germany).

The target in a further data set is Bcr-Abl H396P (Homo sapiens, UniProt P00519, H396P). On the procedure: as §2
A further data set addresses Bcr-Abl Y253H (Homo sapiens, UniProt P00519, Y253H). On the procedure: as §2
The next data set concerns the target Bcr-Abl E255V (Homo sapiens, UniProt P00519, E255V). As to the method: as §2
Data set [3] has as its target T1, Ba/F3 cells transformed with Bcr-Abl wild-type (Homo sapiens, UniProt P00519, cells depend on it, form not given).
T1 construct: fused on or other part: P11274 (Breakpoint cluster region protein)
The data set can be described thus: MTS proliferation, Ba/F3 Bcr-Abl wild-type. Format: cell-based. As to the method: (§3) Presence of single point mutations was verified by sequencing. […] Parental cells were cultured in presence of 2 ng/mL interleukin-3 (IL-3, R&D, Wiesbaden, Germany). IL-3 independent Ba/F3 cells expressing wild-type and mutant BCR-ABL were generated by electroporation and transformed upon withdrawal of IL-3. Expression of Bcr-Abl was confirmed by western blot and flow-cytometric analysis.
(§4) Proliferation was measured using a MTS tetrazolium-based method by absorption of formazam at 490 nm (CellTiter 96, Promega, Madison, Wis., USA). Measures were taken as triplicates after 24 and 48 hours of culture without and in the presence of inhibitor at the indicated concentrations.

Another data set deals with parental Ba/F3 cells. As to the kind of experiment: MTS proliferation, parental Ba/F3 cells. Format: cell-based. The conditions noted are these: read-out: IC50, unspecific growth inhibition. From the text:
[…]. Lancet, 359: 487-491, 2002; incorporated herein by reference). Briefly, RT-PCR fragments derived from clinical samples were cloned into pBlueskript SK+ p185^bcr-abl (Stratagene, Amsterdam, NL), and subcloned into pcDNA3.1/Zeo (+) (Invitrogen, Leek, NL) and Mig EGFP (Bai, R. Y., Ouyang, T., Miething, C., Morris, S. W., Peschel, C., and Duyster, J. Nucleophosmin-anaplastic lymphoma kinase associated with anaplastic large-cell lymphoma activates the phosphatidylinositol 3-kinase/Akt antiapoptotic signaling pathway. Blood, 96: 4319-4327, 2000; incorporated herein by reference). Presence of single point mutations was verified by sequencing. Ba/F3 cells were maintained in RPMI 1640 growth media (Gibco, Karlsruhe, Germany) containing 10% fetal calf serum (Gibco) and P/S (Gibco) (200 U penicillin per mL and 200 μg streptomycin per mL). Parental cells were cultured in presence of 2 ng/mL interleukin-3 (IL-3, R&D, Wiesbaden, Germany). IL-3 independent Ba/F3 cells expressing wild-type and mutant BCR-ABL were generated by electroporation and transformed upon withdrawal of IL-3. Expression of Bcr-Abl was confirmed by western blot and flow-cytometric analysis.
Proliferation was measured using a MTS tetrazolium-based method by absorption of formazam at 490 nm (CellTiter 96, Promega, Madison, Wis., USA). […]

The next data set deals with T2, Bcr-Abl/T3151 (Homo sapiens, UniProt P00519, T315I).
T2 construct: expressed in transfected cells; host or cells: Ba/F3 cells; the other entry of the earlier key: BCR (P11274, Breakpoint cluster region protein)
The data set can be described thus: Bcr-Abl tyrosine phosphorylation in Ba/F3 cells, T3151. It is filed as cell-based.

The next data set addresses T3, Bcr-Abl wild-type (Homo sapiens, UniProt P00519).
T3 construct: expressed in transfected cells; host or cells: Ba/F3 cells (electroporation, IL-3 independent); the other entry of the earlier key: BCR (P11274, Breakpoint cluster region protein)
As to the kind of experiment: Bcr-Abl tyrosine phosphorylation in Ba/F3 cells, wild-type. It is filed as cell-based.

Data set [4] concerns Ba/F3 cells expressing P loop mutant E255V. The data set can be described thus: MTS proliferation, Ba/F3 Bcr-Abl E255V. It is filed as cell-based. On the procedure:
as §3, §4

Data set [5] deals with Ba/F3 cells expressing P loop mutant Y253H. The data set can be described thus: MTS proliferation, Ba/F3 Bcr-Abl Y253H. It is filed as cell-based. As to the method: as §3, §4

A word on the inhibition: it is the change of the read-out against control, counted positive when it falls.

Regarding `CSc1cccc(Nc2ncc3cc(-c4c(Cl)cccc4Cl)c(=O)n(C)c3n2)c1` [PD173955], the IC50 in the data set on CML cell lines was 2 to 35 nM; with normal progenitors (Homo sapiens), 350 nM; in data set [1], 400 to 1000 nM; with CML progenitors (Homo sapiens, read-out: IC50 for CML progenitors, varies in different patients), 1.5 to 7.5 nM; with CML progenitors (read-out: IC50 for CML progenitors, varies in different patients), roughly 2 nM; in [2], roughly 2 nM. In the data set with R10-Negative cells, the “cell division (CFSE)” value is listed as “subsequent divisions are blocked”. Further, the “effect on normal erythroid progenitors” value in the data set with normal progenitors (10 nM) is recorded as “unaffected”. Also, the “inhibition of normal progenitors” value in the data set on normal progenitors (10 nM, any of the cytokines singly or in combination) was “no inhibition”. Also, in “Solubility”, the solubility entry is recorded as “quite insoluble”. The “CML erythroid progenitors' exaggerated response to EPO alone or KL alone” value in the data set on CML progenitors (10 nM) was “almost completely blocked”. The inhibition at 0.01 µM in the data set with CML progenitors (Homo sapiens, G- + GM + KL) was determined as 34%; in the data set with CML progenitors (Homo sapiens, G- + GM-CSF at 0.03 ng/ml), 68%; in the data set with CML progenitors (Homo sapiens, G- + GM-CSF at 10 ng/ml), 61%; in the data set on CML progenitors (Homo sapiens, KL alone at 50-100 ng/ml), 83%.
Regarding `Cc1cc(Nc2ncc3cc(-c4c(Cl)cccc4Cl)c(=O)n(C)c3n2)ccc1F` [PD180970], the “concentration of complete disappearance of phosphotyrosine Bcr-Abl” value at Bcr-Abl E255K was 1 µM; at Bcr-Abl H396P, 250 nM; at Bcr-Abl Y253H, 2 µM; on Bcr-Abl E255V it was 2 µM; on Bcr-Abl wild-type, 250 nM. Moreover, in data set [3], the “fold higher concentrations than the most active compounds” value is recorded as 5 fold. Moreover, the IC50 in the data set with parental Ba/F3 cells was found to be 830 nM. Further, the “activity (autophosphorylation) of Bcr-Abl/T3151” value on Bcr-Abl/T3151 is “did not impair”. The entries for the “cellular IC95” value in [4] and in data set [5] were 935 nM and 770 nM, respectively.
